Assay results reported in PubChem BioAssay (NCI).
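1) Cells in 96-well plates. 2) Compound, 48 h, 5 concentrations. 3) Linear interpolation between surrounding doses. 4) Unreached endpoint = highest concentration. TGI denotes the concentration required for complete inhibition of growth.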

Assays:
Test in all cases: DTP human tumour cell line panel, 48 h
[1] = system: A498 renal
[2] = system: MOLT-4 leukemia
[3] = system: KM12 colon
[4] = system: SF-295 CNS
[5] = system: HOP-92 NSCLC
[6] = system: RXF 393 renal
[7] = system: HT29 colon
[8] = system: HOP-62 NSCLC
[9] = system: K-562 leukemia
[10] = system: NCI-H522 lung
[11] = system: LOX IMVI melanoma
[12] = system: SK-OV-3 ovarian
[13] = system: M19-MEL melanoma
[14] = system: OVCAR-8 ovarian
[15] = system: 786-0 renal
[16] = system: SNB-75 CNS
[17] = system: U251 CNS
[18] = system: KM20L2 colon
[19] = system: OVCAR-4 ovarian
[20] = system: SK-MEL-2 melanoma
[21] = system: CAKI-1 renal
[22] = system: UACC-257 melanoma
[23] = system: M14 melanoma
[24] = system: SN12C renal
[25] = system: NCI-H23 lung
[26] = system: SF-268 CNS
[27] = system: OVCAR-3 ovarian
[28] = system: COLO 205 colon
[29] = system: LXFL 529 NSCLC
[30] = system: MALME-3M melanoma
[31] = system: SNB-19 CNS
[32] = system: OVCAR-5 ovarian
[33] = system: XF 498 CNS
[34] = system: UO-31 renal
[35] = system: NCI-H460 lung
[36] = system: SK-MEL-28 melanoma
[37] = system: HL-60(TB) leukemia
[38] = system: SF-539 CNS
[39] = system: DLD-1 colon
[40] = system: TK-10 renal
[41] = system: A549 NSCLC
[42] = system: IGROV1 ovarian
[43] = system: DMS 114 small cell lung
[44] = system: SNB-78 CNS
[45] = system: HCC-2998 colon
[46] = system: CCRF-CEM leukemia
[47] = system: ACHN renal
[48] = system: RPMI-8226 leukemia
[49] = system: SK-MEL-5 melanoma
[50] = system: EKVX NSCLC
[51] = system: SW-620 colon
[52] = system: NCI-H226 lung
[53] = system: MCF7 breast
[54] = system: MDA-MB-435
[55] = system: PC-3 prostate
[56] = system: MDA-N
[57] = system: DU-145 prostate
[58] = system: UACC-62 melanoma
[59] = system: HCT-15 colon
[60] = system: SR leukemia
[61] = system: NCI/ADR-RES ovarian
[62] = system: BT-549 breast
[63] = system: T-47D breast
[64] = system: MDA-MB-231 breast
[65] = system: HS 578T breast
[66] = system: HCT-116 colon

CCOc1ccccc1NC(=O)C1=C(C)NC(C)=C(C(=O)Nc2ccccc2OCC)C1c1ccc2c(c1)OCO2
TGI [1]: 84 µM | TGI [2]: 75.3 µM | TGI [3]: 50.7 µM | TGI [4]: 74.6 µM | TGI [5]: 56 µM | TGI [6]: > 100 µM | TGI [7]: > 100 µM | TGI [8]: > 100 µM | TGI [9]: 70.3 µM | TGI [10]: 29.8 µM | TGI [11]: > 100 µM | TGI [12]: > 100 µM | TGI [13]: > 100 µM | TGI [14]: > 100 µM | TGI [15]: > 100 µM | TGI [16]: 35.3 µM | TGI [17]: > 100 µM | TGI [18]: > 100 µM | TGI [19]: 76.2 µM | TGI [20]: 55.3 µM | TGI [21]: > 100 µM | TGI [22]: > 100 µM | TGI [23]: 78.2 µM | TGI [24]: > 100 µM | TGI [25]: > 100 µM | TGI [26]: > 100 µM | TGI [27]: 71.8 µM | TGI [28]: > 100 µM | TGI [29]: > 100 µM | TGI [30]: 83.5 µM | TGI [31]: > 100 µM | TGI [32]: > 100 µM | TGI [33]: 49.6 µM | TGI [34]: > 100 µM | TGI [35]: > 100 µM | TGI [36]: > 100 µM | TGI [37]: 45.3 µM | TGI [38]: 84.7 µM | TGI [39]: > 100 µM | TGI [40]: > 100 µM | TGI [41]: > 100 µM | TGI [42]: > 100 µM | TGI [43]: > 100 µM | TGI [44]: 95.6 µM | TGI [45]: 54.9 µM | TGI [46]: 85.1 µM | TGI [47]: > 100 µM | TGI [48]: > 100 µM | TGI [49]: 73.2 µM | TGI [50]: > 100 µM | TGI [51]: > 100 µM | TGI [52]: > 100 µM

CCOC1OC(C)(C=C(C#N)C#N)CCC1C (stereo not drawn)
TGI [1]: 51 µM | TGI [2]: > 100 µM | TGI [3]: > 100 µM | TGI [4]: > 100 µM | TGI [5]: > 100 µM | TGI [6]: > 91.7 µM | TGI [7]: > 93.9 µM | TGI [8]: > 100 µM | TGI [53]: > 100 µM | TGI [9]: 56.8 µM | TGI [54]: > 100 µM | TGI [10]: 39.5 µM | TGI [11]: > 75.8 µM | TGI [12]: > 100 µM | TGI [14]: > 68 µM | TGI [15]: > 89.2 µM | TGI [55]: > 100 µM | TGI [16]: > 100 µM | TGI [17]: > 100 µM | TGI [19]: > 100 µM | TGI [20]: > 100 µM | TGI [21]: 96.2 µM | TGI [22]: > 100 µM | TGI [23]: > 100 µM | TGI [24]: > 86.6 µM | TGI [25]: > 100 µM | TGI [26]: > 100 µM | TGI [27]: > 71.6 µM | TGI [56]: > 100 µM | TGI [57]: > 100 µM | TGI [28]: > 100 µM | TGI [30]: > 100 µM | TGI [31]: > 100 µM | TGI [58]: > 100 µM | TGI [32]: > 100 µM | TGI [34]: 97.7 µM | TGI [59]: > 71.2 µM | TGI [35]: 98.7 µM | TGI [36]: > 100 µM | TGI [37]: 80.4 µM | TGI [38]: 56.6 µM | TGI [60]: > 76.2 µM | TGI [61]: > 88.7 µM | TGI [40]: > 100 µM | TGI [62]: > 70.3 µM | TGI [63]: > 100 µM | TGI [64]: > 100 µM | TGI [41]: > 100 µM | TGI [42]: 36.8 µM | TGI [65]: > 89.1 µM | TGI [45]: > 74.3 µM | TGI [46]: > 86 µM | TGI [47]: > 100 µM | TGI [48]: 70.6 µM | TGI [49]: > 100 µM | TGI [50]: > 100 µM | TGI [66]: > 100 µM | TGI [51]: > 100 µM | TGI [52]: 55.2 µM

COC1CCC(OS(C)(=O)=O)C(C)O1 (stereo not drawn)
TGI [1]: > 10 µM | TGI [2]: > 10 µM | TGI [3]: > 10 µM | TGI [4]: > 10 µM | TGI [5]: > 10 µM | TGI [6]: > 10 µM | TGI [7]: > 10 µM | TGI [8]: > 10 µM | TGI [53]: > 10 µM | TGI [9]: > 10 µM | TGI [54]: > 10 µM | TGI [10]: > 10 µM | TGI [11]: > 10 µM | TGI [12]: > 10 µM | TGI [14]: > 10 µM | TGI [15]: > 10 µM | TGI [55]: > 10 µM | TGI [16]: > 10 µM | TGI [17]: > 10 µM | TGI [19]: > 10 µM | TGI [20]: > 10 µM | TGI [21]: > 10 µM | TGI [22]: > 10 µM | TGI [23]: > 10 µM | TGI [24]: > 10 µM | TGI [25]: > 10 µM | TGI [26]: > 10 µM | TGI [27]: > 10 µM | TGI [56]: > 10 µM | TGI [57]: > 10 µM | TGI [28]: > 10 µM | TGI [30]: > 10 µM | TGI [31]: > 10 µM | TGI [58]: > 10 µM | TGI [32]: > 10 µM | TGI [59]: > 10 µM | TGI [35]: > 10 µM | TGI [36]: > 10 µM | TGI [37]: > 10 µM | TGI [38]: > 10 µM | TGI [60]: > 10 µM | TGI [61]: > 10 µM | TGI [40]: > 10 µM | TGI [62]: > 10 µM | TGI [63]: > 10 µM | TGI [64]: > 10 µM | TGI [41]: > 10 µM | TGI [42]: > 10 µM | TGI [65]: > 10 µM | TGI [45]: > 10 µM | TGI [46]: > 10 µM | TGI [47]: > 10 µM | TGI [48]: > 10 µM | TGI [49]: > 10 µM | TGI [50]: > 10 µM | TGI [66]: > 10 µM | TGI [51]: > 10 µM | TGI [52]: > 10 µM

C=C(CCC(=O)N(CCc1c[nH]c2ccccc12)C(=O)c1ccccc1CSCC)C(=O)OC
TGI [1]: > 100 µM | TGI [2]: > 100 µM | TGI [3]: > 100 µM | TGI [4]: > 100 µM | TGI [5]: > 100 µM | TGI [6]: > 100 µM | TGI [7]: > 100 µM | TGI [8]: > 100 µM | TGI [53]: > 100 µM | TGI [9]: > 100 µM | TGI [54]: > 100 µM | TGI [10]: > 100 µM | TGI [11]: > 100 µM | TGI [12]: > 100 µM | TGI [14]: > 100 µM | TGI [15]: > 100 µM | TGI [55]: > 100 µM | TGI [16]: > 100 µM | TGI [17]: > 100 µM | TGI [19]: > 100 µM | TGI [20]: > 100 µM | TGI [21]: > 100 µM | TGI [22]: > 100 µM | TGI [23]: > 100 µM | TGI [24]: > 100 µM | TGI [25]: > 100 µM | TGI [26]: > 100 µM | TGI [27]: > 100 µM | TGI [56]: > 100 µM | TGI [57]: > 100 µM | TGI [28]: 54.6 µM | TGI [30]: > 100 µM | TGI [31]: > 100 µM | TGI [58]: > 100 µM | TGI [32]: > 100 µM | TGI [34]: > 100 µM | TGI [59]: > 100 µM | TGI [35]: > 100 µM | TGI [36]: > 100 µM | TGI [37]: > 100 µM | TGI [38]: > 100 µM | TGI [60]: > 100 µM | TGI [61]: > 100 µM | TGI [40]: > 100 µM | TGI [62]: > 100 µM | TGI [63]: > 100 µM | TGI [64]: > 100 µM | TGI [41]: > 100 µM | TGI [42]: > 100 µM | TGI [65]: > 100 µM | TGI [45]: > 95.4 µM | TGI [46]: > 100 µM | TGI [47]: > 100 µM | TGI [48]: > 100 µM | TGI [49]: > 100 µM | TGI [50]: > 100 µM | TGI [66]: > 100 µM | TGI [51]: > 100 µM | TGI [52]: > 100 µM
